Experimental data reported in patent US20080009418A1, “Selective Inhibitors” (Alchemia LTD., priority 2004, published 2008).

Experiments:
[1] = molecular target: T1, Human δ-opioid (DOP) (Homo sapiens, UniProt P41143); test: Radioligand binding, human δ-opioid (DOP) membranes, FlashPlate, [3H]-Bremazocine; conditions: compound at 10 μM; for A1 radioligand binding inhibition: human δ-opioid (DOP) membranes
T1 construct: purchased Perkin Elmer Biosignal
Procedure, shortened: (§1)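 Cloned human receptor membranes were coated onto FlashPlate wells and incubated with radioligand and compound (added from a 0.5 mM DMSO daughter plate) for 1 hour at room temperature in the dark. Scintillation counting gave percent inhibition, with DMSO defining total and reference ligand defining non-specific binding.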

[2] = molecular target: T2, Human κ-Opioid (KOP) (Homo sapiens, UniProt P41145); test: Radioligand binding, human κ-opioid (KOP) membranes, filtration, [3H]-Diprenorphine; conditions: compound at 10 μM; for A2 radioligand binding inhibition: human κ-opioid (KOP) membranes
T2 construct: purchased Perkin Elmer Biosignal
Procedure, shortened: (§2)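 Membranes from cloned human receptors were incubated with compound and radioligand for 1 hour at room temperature. Bound ligand was collected on 0.3% PEI-soaked filters, washed with cold 50 mM Tris-HCl pH 7.4, and counted by scintillation. Percent inhibition was computed against DMSO totals and reference-ligand nonspecific wells.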

[3] = molecular target: T3, Human Melanocortin (MC3) (Homo sapiens, UniProt P41968); test: Radioligand binding, human melanocortin MC3 membranes, FlashPlate, [125I]-NDP-αMSH; conditions: compound at 10 μM; for A3 radioligand binding inhibition: human melanocortin MC3 membranes
T3 construct: purchased Perkin Elmer Biosignal
Procedure, shortened: as §1

[4] = molecular target: T4, Human Melanocortin (MC4) (Homo sapiens, UniProt P32245); test: Radioligand binding, human melanocortin MC4 membranes, FlashPlate, [125I]-NDP-αMSH; conditions: compound at 10 μM; for A4 radioligand binding inhibition: human melanocortin MC4 membranes
T4 construct: purchased Perkin Elmer Biosignal
Procedure, shortened: as §1

[5] = molecular target: T5, Human melanocortin (MC5) (Homo sapiens, UniProt P33032); test: Radioligand binding, human melanocortin MC5 membranes, FlashPlate, [125I]-NDP-αMSH; conditions: compound at 10 μM; for A5 radioligand binding inhibition: human melanocortin MC5 membranes
T5 construct: purchased Perkin Elmer Biosignal
Procedure, shortened: as §1

[6] = molecular target: T6, Human melanin-concentrating hormone (MCH1) (Homo sapiens, UniProt Q99705); test: Radioligand binding, human melanin-concentrating hormone MCH1 membranes, FlashPlate, [125I]-S36057; conditions: compound at 10 μM; for A6 radioligand binding inhibition: human MCH1 membranes
T6 construct: purchased Perkin Elmer Biosignal
Procedure, shortened: as §1

[7] = molecular target: T7, Human μ-opioid (MOP) (Homo sapiens, UniProt P35372); test: Radioligand binding, human μ-opioid (MOP) membranes, FlashPlate, [3H]-Naloxone; conditions: compound at 10 μM; for A7 radioligand binding inhibition: human μ-opioid (MOP) membranes
T7 construct: purchased Perkin Elmer Biosignal
Procedure, shortened: as §1

[8] = molecular target: T8, Human neurokinin (NK1) (Homo sapiens, UniProt P25103); test: Radioligand binding, human neurokinin NK1 membranes, filtration, [125I]-Substance P; conditions: compound at 10 μM; for A8 radioligand binding inhibition: human neurokinin NK1 membranes
T8 construct: purchased Perkin Elmer Biosignal
Procedure, shortened: as §2

[9] = molecular target: T9, Human neuropeptide Y (NPY-Y1) (Homo sapiens, UniProt P25929); test: Radioligand binding, human neuropeptide Y NPY-Y1 membranes, FlashPlate, [125I]-PYY; conditions: compound at 10 μM; for A9 radioligand binding inhibition: human NPY-Y1 membranes
T9 construct: purchased Perkin Elmer Biosignal
T9 sequence (P25929 1-384): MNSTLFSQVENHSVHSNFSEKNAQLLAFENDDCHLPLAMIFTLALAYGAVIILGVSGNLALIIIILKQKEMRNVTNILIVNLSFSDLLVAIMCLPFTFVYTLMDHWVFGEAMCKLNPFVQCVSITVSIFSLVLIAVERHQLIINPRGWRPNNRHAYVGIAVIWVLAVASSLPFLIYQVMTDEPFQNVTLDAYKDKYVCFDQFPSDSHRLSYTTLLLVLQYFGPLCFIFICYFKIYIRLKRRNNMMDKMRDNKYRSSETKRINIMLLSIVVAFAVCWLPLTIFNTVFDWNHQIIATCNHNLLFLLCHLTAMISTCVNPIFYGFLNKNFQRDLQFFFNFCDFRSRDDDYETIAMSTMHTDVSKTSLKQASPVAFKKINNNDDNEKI
Procedure, shortened: as §1

[10] = molecular target: T10, Human opioid (ORL1) (Homo sapiens, UniProt P41146); test: Radioligand binding, human opioid ORL1 membranes, FlashPlate, [125I]-Nociceptin; conditions: compound at 10 μM; for A10 radioligand binding inhibition: human ORL1 membranes
T10 construct: purchased Perkin Elmer Biosignal
Procedure, shortened: as §1

[11] = molecular target: T11, Mouse urotensin (mUR2) (Mus musculus, UniProt Q8VIH9); test: Radioligand binding, mouse urotensin mUR2 membranes, FlashPlate, [125I]-Urotensin II; conditions: compound at 10 μM; for A11 radioligand binding inhibition: mouse urotensin mUR2 membranes
T11 construct: purchased Perkin Elmer Biosignal
T11 sequence (Q8VIH9 1-385): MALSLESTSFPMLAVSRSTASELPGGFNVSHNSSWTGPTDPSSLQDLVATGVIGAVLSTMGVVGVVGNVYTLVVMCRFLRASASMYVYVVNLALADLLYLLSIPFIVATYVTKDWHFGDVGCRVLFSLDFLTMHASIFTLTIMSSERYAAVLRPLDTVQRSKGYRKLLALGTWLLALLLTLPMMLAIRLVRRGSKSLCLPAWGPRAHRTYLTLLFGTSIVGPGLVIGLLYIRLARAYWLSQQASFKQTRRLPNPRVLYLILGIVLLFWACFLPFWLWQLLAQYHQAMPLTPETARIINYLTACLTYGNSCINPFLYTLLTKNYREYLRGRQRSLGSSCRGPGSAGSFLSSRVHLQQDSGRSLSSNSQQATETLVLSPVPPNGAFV
Procedure, shortened: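 Cloned mouse urotensin (mUR2) receptor membranes from Perkin Elmer Biosignal were immobilized in FlashPlate microplates using a proprietary coating. Each well got 19.5 μl buffer, then 0.5 μl of DMSO, reference ligand, or compound. Adding 5 μl of [125I]-Urotensin II, diluted to 5× final concentration in binding buffer, started binding. Plates were sealed with TopSeal-A and incubated 1 hour at room temperature in the dark. Wells were counted for 30 seconds each on a TopCount after a 60-second delay, and percentage inhibition was calculated.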

T4 sequence (P32245 whole entry): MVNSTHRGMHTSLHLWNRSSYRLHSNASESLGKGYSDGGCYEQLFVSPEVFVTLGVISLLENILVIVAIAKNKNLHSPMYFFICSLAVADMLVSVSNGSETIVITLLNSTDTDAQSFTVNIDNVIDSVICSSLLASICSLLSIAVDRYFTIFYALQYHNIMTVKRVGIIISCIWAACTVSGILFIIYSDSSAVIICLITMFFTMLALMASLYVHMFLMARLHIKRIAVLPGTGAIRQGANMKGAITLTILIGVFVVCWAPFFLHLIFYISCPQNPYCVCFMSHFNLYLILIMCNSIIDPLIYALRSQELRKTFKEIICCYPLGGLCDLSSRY
T6 sequence (Q99705 whole entry): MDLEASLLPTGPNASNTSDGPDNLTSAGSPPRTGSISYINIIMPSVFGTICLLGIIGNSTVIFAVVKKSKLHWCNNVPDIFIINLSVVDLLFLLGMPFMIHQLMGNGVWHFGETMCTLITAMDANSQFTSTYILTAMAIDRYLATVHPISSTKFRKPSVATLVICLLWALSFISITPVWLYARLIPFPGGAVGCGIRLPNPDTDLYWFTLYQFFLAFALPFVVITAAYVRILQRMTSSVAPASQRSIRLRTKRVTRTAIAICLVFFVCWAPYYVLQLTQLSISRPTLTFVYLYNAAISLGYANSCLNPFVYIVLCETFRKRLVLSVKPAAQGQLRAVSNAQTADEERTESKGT
T1 sequence (P41143 whole entry): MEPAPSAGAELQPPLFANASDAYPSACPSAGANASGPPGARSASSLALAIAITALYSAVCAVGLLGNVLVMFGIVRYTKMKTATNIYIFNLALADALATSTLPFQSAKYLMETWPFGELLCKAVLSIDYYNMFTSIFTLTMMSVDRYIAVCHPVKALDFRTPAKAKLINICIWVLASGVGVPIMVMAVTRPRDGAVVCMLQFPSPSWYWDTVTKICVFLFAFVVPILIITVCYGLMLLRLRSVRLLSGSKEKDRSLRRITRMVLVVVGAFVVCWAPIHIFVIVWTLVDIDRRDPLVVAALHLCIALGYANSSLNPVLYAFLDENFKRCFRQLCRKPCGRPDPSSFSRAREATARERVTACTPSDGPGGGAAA
T3 sequence (P41968 whole entry): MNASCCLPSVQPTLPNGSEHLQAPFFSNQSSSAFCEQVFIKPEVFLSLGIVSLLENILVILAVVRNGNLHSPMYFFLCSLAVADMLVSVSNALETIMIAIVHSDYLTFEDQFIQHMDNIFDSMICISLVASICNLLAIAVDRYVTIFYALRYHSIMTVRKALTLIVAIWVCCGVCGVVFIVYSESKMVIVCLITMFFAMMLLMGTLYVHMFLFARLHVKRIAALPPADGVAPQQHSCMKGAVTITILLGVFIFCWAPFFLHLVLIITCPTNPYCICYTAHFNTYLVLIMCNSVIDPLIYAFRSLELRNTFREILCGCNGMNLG
T8 sequence (P25103 whole entry): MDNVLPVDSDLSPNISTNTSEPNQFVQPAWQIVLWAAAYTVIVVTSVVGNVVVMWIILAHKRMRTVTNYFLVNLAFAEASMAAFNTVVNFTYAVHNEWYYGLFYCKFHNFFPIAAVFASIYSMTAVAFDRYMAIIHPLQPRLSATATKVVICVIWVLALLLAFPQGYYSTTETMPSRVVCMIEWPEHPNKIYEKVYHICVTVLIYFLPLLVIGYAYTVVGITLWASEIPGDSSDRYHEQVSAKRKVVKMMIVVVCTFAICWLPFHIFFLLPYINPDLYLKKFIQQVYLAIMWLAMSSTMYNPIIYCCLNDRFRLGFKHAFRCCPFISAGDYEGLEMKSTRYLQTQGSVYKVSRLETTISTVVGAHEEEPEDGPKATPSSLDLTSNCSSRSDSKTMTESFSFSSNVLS
T7 sequence (P35372 whole entry): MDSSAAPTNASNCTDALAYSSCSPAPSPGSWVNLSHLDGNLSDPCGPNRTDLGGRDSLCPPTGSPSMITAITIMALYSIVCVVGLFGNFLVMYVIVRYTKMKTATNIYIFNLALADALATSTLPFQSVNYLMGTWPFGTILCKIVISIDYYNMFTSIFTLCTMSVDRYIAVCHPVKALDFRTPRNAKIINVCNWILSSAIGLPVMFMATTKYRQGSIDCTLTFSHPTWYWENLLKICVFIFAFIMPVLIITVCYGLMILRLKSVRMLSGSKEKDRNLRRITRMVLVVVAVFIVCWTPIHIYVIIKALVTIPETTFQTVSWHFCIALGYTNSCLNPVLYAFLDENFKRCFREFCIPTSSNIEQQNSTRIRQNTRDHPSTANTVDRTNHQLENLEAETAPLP
T5 sequence (P33032 whole entry): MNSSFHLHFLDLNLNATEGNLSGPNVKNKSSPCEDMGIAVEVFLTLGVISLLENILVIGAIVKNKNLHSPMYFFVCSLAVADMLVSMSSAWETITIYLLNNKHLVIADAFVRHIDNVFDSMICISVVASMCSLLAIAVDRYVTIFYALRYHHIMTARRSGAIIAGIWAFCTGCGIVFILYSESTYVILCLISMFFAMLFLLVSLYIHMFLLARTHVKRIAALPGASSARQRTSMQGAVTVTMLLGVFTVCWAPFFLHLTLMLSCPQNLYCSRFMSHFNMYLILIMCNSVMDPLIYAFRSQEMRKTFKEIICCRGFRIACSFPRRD
T10 sequence (P41146 whole entry): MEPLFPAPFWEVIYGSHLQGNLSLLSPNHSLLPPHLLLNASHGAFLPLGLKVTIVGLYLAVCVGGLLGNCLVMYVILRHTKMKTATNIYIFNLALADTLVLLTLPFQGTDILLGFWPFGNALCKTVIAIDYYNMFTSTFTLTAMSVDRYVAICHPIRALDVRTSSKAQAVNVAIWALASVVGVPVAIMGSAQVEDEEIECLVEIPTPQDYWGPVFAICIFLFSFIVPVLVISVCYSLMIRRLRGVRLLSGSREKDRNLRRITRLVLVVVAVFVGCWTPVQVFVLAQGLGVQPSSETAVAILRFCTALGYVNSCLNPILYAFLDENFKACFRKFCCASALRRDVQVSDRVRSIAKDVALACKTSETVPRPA
T2 sequence (P41145 whole entry): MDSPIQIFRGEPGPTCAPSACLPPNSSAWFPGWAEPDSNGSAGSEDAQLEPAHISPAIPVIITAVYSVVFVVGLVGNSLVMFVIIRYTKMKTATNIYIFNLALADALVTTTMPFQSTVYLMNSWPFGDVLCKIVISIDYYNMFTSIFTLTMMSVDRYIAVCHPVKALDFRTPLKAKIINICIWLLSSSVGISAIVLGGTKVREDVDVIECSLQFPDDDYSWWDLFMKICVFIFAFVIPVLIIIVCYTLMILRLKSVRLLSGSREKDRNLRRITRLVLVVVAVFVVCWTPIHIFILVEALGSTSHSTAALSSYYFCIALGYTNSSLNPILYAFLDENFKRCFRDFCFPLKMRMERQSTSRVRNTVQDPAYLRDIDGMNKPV

In the case of `CO[C@H]1[C@H](O)[C@@H](COCc2ccc3ccccc3c2)OC(OCc2ccccc2)[C@@H]1NC(=O)CCNC(=N)N` (stereo partly shown) [compound 87], the “A1 radioligand binding inhibition” value [1] is reported as “− (“−” indicates less than 50% inhibition at 10 μM)”, the “A2 radioligand binding inhibition” value [2] is reported as “− (“−” indicates less than 50% inhibition at 10 μM)” and the “A3 radioligand binding inhibition” value [3] is reported as “− (“−” indicates less than 50% inhibition at 10 μM)”. The “A4 radioligand binding inhibition” value [4] was “− (“−” indicates less than 50% inhibition at 10 μM)”, the “A5 radioligand binding inhibition” value [5] was “− (“−” indicates less than 50% inhibition at 10 μM)” and the “A6 radioligand binding inhibition” value [6] was “− (“−” indicates less than 50% inhibition at 10 μM)”. For the same compound, the “A7 radioligand binding inhibition” value [7] was “− (“−” indicates less than 50% inhibition at 10 μM)”, the “A8 radioligand binding inhibition” value [8] was “+ (“+” indicates greater than 50% inhibition at 10 μM)” and the “A9 radioligand binding inhibition” value [9] was “− (“−” indicates less than 50% inhibition at 10 μM)”. The “A10 radioligand binding inhibition” value [10] was “− (“−” indicates less than 50% inhibition at 10 μM)” and the “A11 radioligand binding inhibition” value [11] was “− (“−” indicates less than 50% inhibition at 10 μM)”.
With `COCC1OC(OCc2ccc3ccccc3c2)C(NC(=O)CCN)C(OCc2ccc3ccccc3c2)C1O` (stereo not shown) [compound 248] the “A1: inhibition of radioligand binding” value ([1]; [3H]-Bremazocine, FlashPlate) was “− (“−” indicates less than 50% inhibition at 10 μM)”, the “A2: inhibition of radioligand binding” value ([2]; [3H]-Diprenorphine, filtration) was “− (“−” indicates less than 50% inhibition at 10 μM)” and the “A3: inhibition of radioligand binding” value ([3]; [125I]-NDP-αMSH, FlashPlate) was “− (“−” indicates less than 50% inhibition at 10 μM)”. The “A4: inhibition of radioligand binding” value ([4]; [125I]-NDP-αMSH, FlashPlate) was “− (“−” indicates less than 50% inhibition at 10 μM)”, the “A5: inhibition of radioligand binding” value ([5]; [125I]-NDP-αMSH, FlashPlate) was “+ (“+” indicates greater than 50% inhibition at 10 μM)” and the “A6: inhibition of radioligand binding” value ([6]; [125I]-S36057, FlashPlate) was “− (“−” indicates less than 50% inhibition at 10 μM)”. For the same compound, the “A7: inhibition of radioligand binding” value ([7]; [3H]-Naloxone, FlashPlate) was “− (“−” indicates less than 50% inhibition at 10 μM)”, the “A8: inhibition of radioligand binding” value ([8]; [125I]-Substance P, filtration) was “+ (“+” indicates greater than 50% inhibition at 10 μM)” and the “A9: inhibition of radioligand binding” value ([9]; [125I]-PYY, FlashPlate) was “− (“−” indicates less than 50% inhibition at 10 μM)”. For the same compound, the “A10: inhibition of radioligand binding” value ([10]; [125I]-Nociceptin, FlashPlate) was “− (“−” indicates less than 50% inhibition at 10 μM)” and the “A11: inhibition of radioligand binding” value ([11]; [125I]-Urotensin II, FlashPlate) was “− (“−” indicates less than 50% inhibition at 10 μM)”.
In the case of `CO[C@H]1[C@H](O)[C@@H](COCc2ccc(-c3ccccc3)cc2)OC(OCCc2ccccc2)[C@@H]1NC(=O)CCCN` (stereo partly shown) [compound 111], the “A1 radioligand binding, percentage inhibition” value ([1]; [3H]-Bremazocine) is reported as “− (“−” indicates less than 50% inhibition at 10 μM)”, the “A2 radioligand binding, percentage inhibition” value ([2]; [3H]-Diprenorphine) is reported as “− (“−” indicates less than 50% inhibition at 10 μM)” and the “A3 radioligand binding, percentage inhibition” value ([3]; [125I]-NDP-αMSH) is reported as “− (“−” indicates less than 50% inhibition at 10 μM)”. The “A4 radioligand binding, percentage inhibition” value ([4]; [125I]-NDP-αMSH) was “− (“−” indicates less than 50% inhibition at 10 μM)”, the “A5 radioligand binding, percentage inhibition” value ([5]; [125I]-NDP-αMSH) was “− (“−” indicates less than 50% inhibition at 10 μM)” and the “A6 radioligand binding, percentage inhibition” value ([6]; [125I]-S36057) was “− (“−” indicates less than 50% inhibition at 10 μM)”. For the same compound, the “A7 radioligand binding, percentage inhibition” value ([7]; [3H]-Naloxone) was “− (“−” indicates less than 50% inhibition at 10 μM)”, the “A8 radioligand binding, percentage inhibition” value ([8]; [125I]-Substance P) was “+ (“+” indicates greater than 50% inhibition at 10 μM)” and the “A9 radioligand binding, percentage inhibition” value ([9]; [125I]-PYY) was “− (“−” indicates less than 50% inhibition at 10 μM)”. For the same compound, the “A10 radioligand binding, percentage inhibition” value ([10]; [125I]-Nociceptin) was “− (“−” indicates less than 50% inhibition at 10 μM)” and the “A11 radioligand binding, percentage inhibition” value ([11]; [125I]-Urotensin II) was “− (“−” indicates less than 50% inhibition at 10 μM)”.
`NCC1CCC(C(=O)NC2O[C@H](CO)[C@@H](O)[C@H](OCc3cccc4ccccc34)[C@H]2NC(=O)c2ccccc2)CC1` (stereo partly shown) [compound 362] was tested, and the “A1: inhibition of radioligand binding, human δ-opioid (DOP)” value ([1]; [3H]-Bremazocine) was “− (“−” indicates less than 50% inhibition at 10 μM)”, the “A2: inhibition of radioligand binding, human κ-opioid (KOP)” value ([2]; [3H]-Diprenorphine) was “− (“−” indicates less than 50% inhibition at 10 μM)” and the “A3: inhibition of radioligand binding, human melanocortin (MC3)” value ([3]; [125I]-NDP-αMSH) was “− (“−” indicates less than 50% inhibition at 10 μM)”. The “A4: inhibition of radioligand binding, human melanocortin (MC4)” value ([4]; [125I]-NDP-αMSH) was “− (“−” indicates less than 50% inhibition at 10 μM)”, the “A5: inhibition of radioligand binding, human melanocortin (MC5)” value ([5]; [125I]-NDP-αMSH) was “− (“−” indicates less than 50% inhibition at 10 μM)” and the “A6: inhibition of radioligand binding, human melanin-concentrating hormone (MCH1)” value ([6]; [125I]-S36057) was “− (“−” indicates less than 50% inhibition at 10 μM)”. The “A7: inhibition of radioligand binding, human μ-opioid (MOP)” value ([7]; [3H]-Naloxone) was “− (“−” indicates less than 50% inhibition at 10 μM)”, the “A8: inhibition of radioligand binding, human neurokinin (NK1)” value ([8]; [125I]-Substance P) was “+ (“+” indicates greater than 50% inhibition at 10 μM)” and the “A9: inhibition of radioligand binding, human neuropeptide Y (NPY-Y1)” value ([9]; [125I]-PYY) was “− (“−” indicates less than 50% inhibition at 10 μM)”. The “A10: inhibition of radioligand binding, human opioid (ORL1)” value ([10]; [125I]-Nociceptin) was “− (“−” indicates less than 50% inhibition at 10 μM)” and the “A11: inhibition of radioligand binding, mouse urotensin (mUR2)” value ([11]; [125I]-Urotensin II) was “− (“−” indicates less than 50% inhibition at 10 μM)”.
`COC[C@H]1OC(OCc2ccc(-c3ccccc3)cc2)[C@H](NC(=O)CCNC(=N)N)[C@@H](OCc2ccc(Cl)cc2)[C@@H]1O` (stereo partly shown) [compound 11] was tested, and the “A1 radioligand binding inhibition” value [1] was “+ (“+” indicates greater than 50% inhibition at 10 μM)”, the “A2 radioligand binding inhibition” value [2] was “+ (“+” indicates greater than 50% inhibition at 10 μM)” and the “A3 radioligand binding inhibition” value [3] was “− (“−” indicates less than 50% inhibition at 10 μM)”. The “A4 radioligand binding inhibition” value [4] was “+ (“+” indicates greater than 50% inhibition at 10 μM)”, the “A5 radioligand binding inhibition” value [5] was “+ (“+” indicates greater than 50% inhibition at 10 μM)” and the “A6 radioligand binding inhibition” value [6] was “+ (“+” indicates greater than 50% inhibition at 10 μM)”. The “A7 radioligand binding inhibition” value [7] was “+ (“+” indicates greater than 50% inhibition at 10 μM)”, the “A8 radioligand binding inhibition” value [8] was “+ (“+” indicates greater than 50% inhibition at 10 μM)” and the “A9 radioligand binding inhibition” value [9] was “− (“−” indicates less than 50% inhibition at 10 μM)”. For the same compound, the “A10 radioligand binding inhibition” value [10] was “− (“−” indicates less than 50% inhibition at 10 μM)” and the “A11 radioligand binding inhibition” value [11] was “− (“−” indicates less than 50% inhibition at 10 μM)”.
